Here are results for six molecules from patent US20190375778A1, “ADENOSINE DERIVATIVES FOR USE IN THE TREATMENT OF CANCER” (NuCana plc, priority 2016, published 2019).

One test concerns K-562. The experiment in a line: ATP ViaLight cytotoxicity assay, K-562. In kind it is cell-based. Particulars: Homo sapiens, K562, 72 h. The procedure:
HL-60, CTS, and K-562 are leukaemia cell lines, which were obtained from the American Type Culture Collection (ATCC), Middlesex. HL-60 cell line is of acute promyelocytic leukaemia; CTS cell line is of acute myeloid leukaemia; and K-562 cell line is of chronic myeloid leukaemia.
HL-60, CTS, and K-562 cell lines were cultured in RPMI-1640 medium (Sigma Aldrich, UK), which was supplemented with 10% Fetal Bovine Serum (FBS) (PAA Laboratories), 1% amphotericin B (5.5 ml) and 1% penicillin/streptomycin (5.5 ml) (PAA Laboratories) and grown in flasks at 37° C. incubator with 5% CO2.
For inhibitor studies the cell lines were treated in the same way as described above but before treatment with drugs, a number of inhibitors were added: • 1) Nitrobenzylthioinosine (NBTI) (Sigma-Aldrich, St. Louis, Mo.) inhibits hENT1. • 2) A-134974 dihydrochloride hydrate (Sigma-Aldrich, St. Louis, Mo.) inhibits adenosine kinase. • 3) EHNA hydrochloride (Sigma-Aldrich, St. Louis, Mo.) inhibits adenosine deaminase.
ATP ViaLight™ plus assay kit (Lonza, USA: Product No. LT07-121) was used for treating the cells in luminescence compatible 96 well plates (initial concentration of cells was 1×10^4 cells/well) with 8-Cl-A and ProTides, concentrations: 0, 0.1, 0.5, 1, 5 and 10 μM were added to cells, respectively, followed by incubation for 72 hours at 37° C. incubator with 5% CO2. For inhibitor studies, […] concentration of each inhibitor was added before drugs and incubated for 72 hours at 37° C. with 5% CO2.
After incubation, 50 μl of cell lysis reagent was added to the 96 well plates to release the intracellular ATP, followed by 100 μl of ATP monitoring reagent (AMR). The luminescent values of each well were determined using FLUOstar OPTIMA microplate reader (BMG Labtech) which converted ATP into light by using luciferase enzyme.
The dose-response curves of cytotoxicity of the drugs was determined using non-linear regression analysis of percentage cell viability versus concentration and EC50 values were obtained. The intracellular assay was conducted in five repeats for each condition. Intracellular assay was determined using paired T test (two-tailed) analysis of 8-ChloroATP/ATP concentration and p values were obtained. Drug stability in human plasma was determined using two-way ANOVA analysis. For all the analysis, Prism Software program (GraphPad Software) was used.

The next test concerns A549. The experiment in a line: MTT cytotoxicity assay, A549. In kind it is cell-based. To be noted: Homo sapiens, 96 h compound exposure, read-out: absolute IC50, A549. An excerpt: (§1) Lovo: cell line derived from a metastatic site in a patient with colon cancer MCF7: human oestrogen sensitive mammary epithelial cell line PC3: human prostate cancer cell line A549: cancerous lung tissue derived cells L1210: lymphoblast cell line derived from a mouse with lymphocytic leukaemia FM3A: mammary carcinoma murine cells CEM: human T-lymphoblasts, derived from the blood of a patient with acute lymphoblastic leukaemia HeLa: epithelial cells from a patient with cervical adenocarcinoma
(§2) Anti-tumour evaluation in MCF7, LoVo, A549 and PC3 cell lines was performed by MTT assay. Compounds were prepared as 0.1-100 mM stock solutions dissolved in DMSO and stored at −20° C. Cells were seeded into 96-well microtitre plates at a density of 5×10^3 cells per well and allowed 24 hours to adhere. Decimal compound dilutions were prepared in medium immediately prior to each assay (final concentration 0.1-100 μM). Experimental medium was DMEM+10% FCS (PC3 and Lovo) or RPMI+10% heat inactivated FCS (A549 and MCF7). Following 96 h compound exposure at 37° C., 5% CO2, MTT reagent (Sigma Aldrich) was added to each well (final concentration 0.5 mg/ml). Incubation at 37° C. for 4 h allowed reduction of MTT by viable cells to an insoluble formazan product. MTT was removed and formazan solubilised by addition of 10% Triton X-100 in PBS. Absorbance was read on a Tecan Sunrise spectrophotometer at 540 nm as a measure of cell viability; thus inhibition relative to control was determined (IC50).
(Tetrazolium assays rely on reduction of a dye to a coloured formazan, in cell work by metabolically active cells.)

Another test deals with FM3A. The experiment in a line: Cytotoxicity, FM3A. The class given is cell-based, murine. Particulars: Mus musculus, read-out: absolute IC50, FM3A.
From the text: as §1

Another test relates to Lovo. The experiment in a line: MTT cytotoxicity assay, Lovo. In kind it is cell-based. Particulars: Homo sapiens, 96 h compound exposure, read-out: absolute IC50, Lovo.
From the text: as §1, §2

Another test concerns T24/83. The experiment in a line: Viability assay, T24/83. The class given is cell-based. As to the method: (§3) In vitro viability assay were performed to assess the effects of compounds on cell viability in selected cell lines over ˜72 hrs using the CellTiterGlo (CTG, Promega-G7573) assay. The tests were performed in duplicates with treatment of compounds at 9 points, 3.16 folds titration in 96 well plates over ˜72 hrs. The compound starting concentrations were 198 μM. Cell viability assay using CellTiterGlo in 96-well plate were performed. Compound treatment 72 hrs, standard growth conditions, duplicates. Compounds were dissolved to 40 mM with thawed […]. Compounds were serially diluted at 3.16 fold in thawed DMSO, and warmed to 37° C. before being dissolved in media (2 μl+200 μl). After compounds were dissolved in media, media containing compounds were warmed to 37° C. in incubator and then compounds in media were added to cell plates (50 μl+50 μl) in duplicates. The compounds' final concentrations were from […] to 19.9 nM. All compound solubilities were checked and recorded again, then the plates were transferred to CO2 tissue culture incubator immediately and incubated for 3 days. DMSO final concentration is 0.5%.

The next test deals with CAL27. The experiment in a line: Viability assay, CAL27. The class given is cell-based. The procedure: as §3

Where only a bound is given, the exact number is not on record here.

Broadly, the IC50 is the point on the concentration scale where inhibition reaches its midpoint.

With `C[C@H](NP(=O)(OC[C@H]1O[C@@H](n2c(Cl)nc3c(N)ncnc32)C(O)C1O)Oc1cccc2ccccc12)C(=O)OCc1ccccc1` (stereo partly drawn) [Compound D, (2S)-Benzyl 2-(((((2R,3S,4R,5R)-5-(6-amino-8-chloro-9H-purin-9-yl)-3,4-dihydroxy-tetrahydrofuran-2-yl)methoxynaphthalene-1-yloxy)phosphoryl)amino)propanoate], the EC50 with K-562 (Control (no inhibitor)) stood at 6.63 µM; in the test on K-562 (with A-134974 (adenosine kinase inhibitor)), 19.7 µM; with K-562 (with NBTI (hENT1 inhibitor)), 1.73 µM.
Regarding `C[C@H](NP(=O)(OC[C@H]1O[C@@H](n2c(Cl)nc3c(N)ncnc32)[C@H](O)[C@@H]1O)Oc1ccccc1)C(=O)OCc1ccccc1` (mixture of isomers) [C, (2S)-Benzyl 2-(((((2R,3S,4R,5R)-5-(6-amino-8-chloro-9H-purin-9-yl)-3,4-dihydroxy-tetrahydrofuran-2-yl)methoxy)(phenoxy)phosphoryl)amino)propanoate], the IC50 with A549 was 15 to 100 µM; in the test with FM3A, 15 to 100 µM; in the test on Lovo, 0.1 to 5 µM.
Regarding `Nc1ncnc2c1nc(Cl)n2[C@@H]1O[C@H](COP(=O)(NCC(=O)OCc2ccccc2)Oc2ccccc2)[C@@H](O)[C@H]1O` (mixture of isomers) [Compound B, Benzyl 2-(((((2R,3S,4R,5R)-5-(6-amino-8-chloro-9H-purin-9-yl)-3,4-dihydroxytetra-hydrofuran-2-yl)methoxy)(phenoxy)phosphoryl)amino)acetate], the IC50 with A549 was in the range of 5 to 15 µM; in the test on FM3A, 0.1 to 5 µM; with Lovo it was 0.1 to 5 µM. The EC50 in the test with K-562 (Control (no inhibitor)) amounted to 2.86 µM; in the test on K-562 (with NBTI (hENT1 inhibitor)), 12.8 µM.
In the case of `Nc1ncnc2c1nc(Cl)n2[C@@H]1O[C@H](CO)[C@@H](O)[C@H]1O` [8-chloroadenosine, 8-Chloroadenosine, reference compound], the IC50 in the test with A549, in the test with FM3A and in the test on Lovo was 0.1 to 5 µM each time. Moreover, in the test on T24/83, the “Top in. % T24/83” value is given as 77.5%. Further, the EC50 in the test with T24/83 (T24/83, read-out: Ab EC50 (μM) T24/83) turned out to be 2 µM; in the test with K-562 (Control (no inhibitor)) it was 0.64 µM; with K-562 (with NBTI (hENT1 inhibitor)), 4.69 µM; in the test with CAL27 (Homo sapiens, CAL-27, read-out: Ab EC50 (μM) CAL27) it was 1.73 µM. Also, the “Top in. % CAL27” value in the test with CAL27 came out at 76.5%.
As for `Nc1ncnc2c1nc(Cl)n2[C@@H]1O[C@H](COP(=O)(NCC(=O)OC2CCCCC2)Oc2ccccc2)[C@@H](O)[C@H]1O` (mixture of isomers) [Compound A, Cyclohexyl 2-(((((2R,3S,4R,5R)-5-(6-amino-8-chloro-9H-purin-9-yl)-3,4-dihydroxy-tetrahydrofuran-2-yl)methoxy)(phenoxy)phosphoryl)amino)acetate], the results for the IC50 in the test with A549, with FM3A and in the test with Lovo were 15 to 100 µM, above 100 µM and 0.1 to 5 µM, respectively.
The matching figures for `CC(C)C[C@H](NP(=O)(OC[C@H]1O[C@@H](n2c(Cl)nc3c(N)ncnc32)C(O)C1O)Oc1ccccc1)C(=O)OCc1ccccc1` (stereo partly drawn) [V, 5′-([(Benzyloxy-L-leucin-N-yl)-phenyl]-phosphatyl) 8-chloroadenosine]: 0.1 to 5 µM, 15 to 100 µM and 0.1 to 5 µM.
